Experiment: Acyl group migration (rearrangement) of pro-drug in DMSO-d6/buffer solution monitored by 19F-NMR
Assay type: physicochemical
Protocol: A compound of formula (I) OR (X) (5 mg) is dissolved in DMSO-d6 (500 μL) and either pH 4 buffer solution (500 μL, potassium hydrogen phthalate buffer) or pH 7 buffer solution (500 μL, sodium and potassium phosphate buffer) is added. The sample is then heated to 40° C. The O-acyl or N-acyl to N-terminal N-acyl migration is monitored by observing the change in chemical shift for the aromatic fluorines using ^19F-NMR. (Fluorine shifts associated with the desired migration were confirmed by spiking with authentic analogue). The sample is analyzed by ^19F-NMR at approxiamately 0, 1.5, 3, 24, 48, and 144 hours. The amount of O-acyl pro-drug, N-acyl pro-drug, and desired migration product at each time point are assigned by integrating the corresponding NMR signal.
N˜1˜-[(2R,3S)-3-amino-4-(3,5-difluorophenyl)-2-hydroxybutyl]-5-(1,3-oxazol-2-yl)-N˜3˜,N˜3˜-dipropyl-N˜1˜-[3-(trifluoromethyl)benzyl]isophthalamide hydrochloride (PREPARATION 7, 5 mg) is dissolved in DMSO-d6 (500 μL) and pH 4 buffer solution (500 μL, potassium hydrogen phthalate buffer) is added. The sample is then heated to 40° C. The N-acyl to N-terminal N-acyl migration is monitored by observing the change in chemical shift for the aromatic fluorines using ^19F-NMR. (Fluorine shifts for the desired migration product in the presence of buffer was confirmed by spiking with authentic migration product, N^1-((1S,2R)-1-(3,5-difluorobenzyl)-2-hydroxy-3-{[3-(trifluoromethyl)benzyl]amino}propyl)-5-(1,3-oxazol-2-yl)-N^3,N^3-dipropylisophthalamide.) NMR data is collected at 0, 1, 3, 25, 48, 96, and 144 hours. The amount of N-acyl pro-drug and desired migration product present at each time point is assigned by integrating the corresponding NMR signal.
The following examples illustrate the solution acyl group migration of compounds of the formulae (I) and (X) as observed by ^19F NMR spectroscopy. Data were collected as described in Example 1, above.

HEA product (% present) (pH 4, 40° C., time 0 hr) [%] | N-acyl prodrug (% present) (pH 4, 40° C., time 0 hr) [%] | O-acyl pro-drug (% present) (pH 4, 40° C., time 0 hr) [%] | HEA product (% present) (pH 4, 40° C., time 1.5 hr) [%] | N-acyl prodrug (% present) (pH 4, 40° C., time 1.5 hr) [%] | O-acyl pro-drug (% present) (pH 4, 40° C., time 1.5 hr) [%] | HEA product (% present) (pH 4, 40° C., time 3 hr) [%] | N-acyl prodrug (% present) (pH 4, 40° C., time 3 hr) [%] | O-acyl pro-drug (% present) (pH 4, 40° C., time 3 hr) [%] | HEA product (% present) (pH 4, 40° C., time 24 hr) [%] | N-acyl prodrug (% present) (pH 4, 40° C., time 24 hr) [%] | O-acyl pro-drug (% present) (pH 4, 40° C., time 24 hr) [%] | HEA product (% present) (pH 7, 40° C., time 0 hr) [%] | N-acyl prodrug (% present) (pH 7, 40° C., time 0 hr) [%] | O-acyl pro-drug (% present) (pH 7, 40° C., time 0 hr) [%] | HEA product (% present) (pH 7, 40° C., time 1.5 hr) [%] | N-acyl prodrug (% present) (pH 7, 40° C., time 1.5 hr) [%] | O-acyl pro-drug (% present) (pH 7, 40° C., time 1.5 hr) [%] | N-acyl prodrug (% present) (pH 7, 40° C., time 7 hr) [%] | N-acyl prodrug (% present) (pH 7, 40° C., time 24 hr) [%] | SMILES | also measured
 |  |  |  |  |  |  |  |  |  |  |  |  |  |  |  |  |  |  |  | CCCN(CCC)C(=O)c1cc(C(=O)N(Cc2cccc(C(F)(F)F)c2)C[C@@H](O)[C@@H](N)Cc2cc(F)cc(F)c2)cc(-c2ncco2)c1.Cl [N˜1˜-[(2R,3S)-3-amino-4-(3,5-difluorophenyl)-2-hydroxybutyl]-5-(1,3-oxazol-2-yl)-N˜3˜,N˜3˜-dipropyl-N˜1˜-[3-(trifluoromethyl)benzyl]isophthalamide hydrochloride] | migration of N-acyl pro-drug to O-acyl pro-drug (pH 4 buffer/DMSO-d6, 40° C., 0 to 144 hours, 19F-NMR): No migration to O-acyl pro-drug was observed
0 | 0 | 100 | 54 | 13 | 33 | 76 | 15 | 9 | 88 | 12 | 0 | 0 | 0 | 100 | 48 | 52 | 0 | 46 | 38 | CCCN(CCC)C(=O)c1cc(C(=O)O[C@H](CNCc2cccc(CC)c2)[C@@H](N)Cc2cc(F)cc(F)c2)cc(-c2ncco2)c1.Cl.Cl [Preparation 16, (1R,2S)-2-amino-3-(3,5-difluorophenyl)-1-{[(3-ethylbenzyl)amino]methyl}propyl 3-[(dispropylamino)carbonyl]-5-(1,3-oxazol-2-yl)benzoate dihydrochloride] | HEA product (% present) (pH 4, 40° C., time 48 hr): 88%; N-acyl prodrug (% present) (pH 4, 40° C., time 48 hr): 12%; O-acyl pro-drug (% present) (pH 4, 40° C., time 48 hr): 0%; HEA product (% present) (pH 4, 40° C., time 144 hr): 91%; N-acyl prodrug (% present) (pH 4, 40° C., time 144 hr): 9%; O-acyl pro-drug (% present) (pH 4, 40° C., time 144 hr): 0%; HEA product (% present) (pH 7, 40° C., time 7 hr): 54%; O-acyl pro-drug (% present) (pH 7, 40° C., time 7 hr): 0%; HEA product (% present) (pH 7, 40° C., time 24 hr): 62%; O-acyl pro-drug (% present) (pH 7, 40° C., time 24 hr): 0%; HEA product (% present) (pH 7, 40° C., time 48 hr): 71%; N-acyl prodrug (% present) (pH 7, 40° C., time 48 hr): 29%; O-acyl pro-drug (% present) (pH 7, 40° C., time 48 hr): 0%; HEA product (% present) (pH 7, 40° C., time 144 hr): 85%; N-acyl prodrug (% present) (pH 7, 40° C., time 144 hr): 15%; O-acyl pro-drug (% present) (pH 7, 40° C., time 144 hr): 0%
0 | 0 | 100 | 47 | 0 | 53 | 67 | 0 | 33 | 100 | 0 | 0 | 0 | 0 | 100 | 97 | 0 | 3 | 0 | 0 | CCCN(CCC)C(=O)c1cc(C(=O)O[C@H](CNC2(c3cccc(CC)c3)CC2)[C@@H](N)Cc2cc(F)cc(F)c2)cc(-c2ncco2)c1.Cl.Cl [Preparation 17, (1R,2S)-2-amino-3-(3,5-difluorophenyl)-1-({[1-(3-ethylphenyl)cyclopropyl]amino}methyl)propyl 3-[(dipropylamino)carbonyl]-5-(1,3-oxazol-2-yl)benzoate dihydrochloride] | HEA product (% present) (pH 4, 40° C., time 6 hr): 89%; N-acyl prodrug (% present) (pH 4, 40° C., time 6 hr): 0%; O-acyl pro-drug (% present) (pH 4, 40° C., time 6 hr): 11%; N-acyl prodrug (% present) (pH 7, 40° C., time 48 hr): 0%; N-acyl prodrug (% present) (pH 7, 40° C., time 144 hr): 0%

Reference: patent US7294642B2, “1,3-Diamino-2-hydroxypropane pro-drug derivatives” (Elan Pharmaceuticals, Inc., priority 2002, dated 2007)
